Results taken from US6780418B1, “Reagents and immunoassay for the detection and quantitative determination of mycothiol and precursors thereof” (The Regents of the University of California, priority 1997, dated 2004).

What was measured:
M. smegmatis mc^2155 = test: Effect of nutrient supplementation upon mycothiol intermediate levels and growth; type: cell-based, Mycobacterium smegmatis
Procedure: To test whether an increase in cellular Ins content would influence the levels of MSH or potential MSH intermediates, we examined M. smegmatis mc^2155 incubated with Ins. We initially tested Ins uptake by adding 37 μM ^14C-inositol to a culture at A600=1.0 and determining the loss of radiolabel from the medium and its appearance in cells. After 2.5 h, 77% of the counts had been lost from the medium to the cells, showing that M. smegmatis efficiently imports inositol. Next we harvested cells after growth to mid log phase, resuspended them at A600=1.05 in Middlebrook 7H9 media with glucose and 1 MM Ins at 37° C., and took samples for analysis at 0, 0.5 and 2.5 h (FIG. 17A).
To test whether changes in cellular Cys levels would influence MSH or MSH intermediates, we incubated cells in medium containing 10 mM AcCys. Since AcCys is readily taken up by passive diffusion we expected this to produce markedly elevated levels of cellular AcCys and, through deacylation, Cys. […] The Cys-GlcN-Ins content was elevated 20-fold over normal immediately after the start of incubation but then fell a factor of 70 over the next 2.5 h. Least affected was the MSH content which was elevated ˜40% after 2.5 h.

anti-mycothiol antibody = test: ELISA of Example 4: thiol bound to maleimide-activated BSA, detected with affinity-purified anti-MSH antibody; type: binding, rabbit; conditions: for ELISA result (recognition by the anti-mycothiol antibody): thiol at the 10 pmol level
Procedure: Known amounts of pure MSH (typically from 0 to 1 pmol/well) were reacted with maleimide-activated BSA (Pierce); maleimide activation levels were 16-19 mol maleimide per mol BSA. The maleimide-activated BSA was reconstituted to 10 mg/ml and this stock solution stored at −70° C. until needed. The stock solution was diluted to a working concentration of 5 ng/μl just before use and kept chilled on ice. MSH from the concentrated stock solution in 0.1% TFA was diluted into TBS (Tris-buffered saline: 0.1 M Tris, pH 7.3, 0.15 M NaCl, 0.04% NaN3) on ice and the diluted samples (40 μl per well) immediately added to the maleimide-activated BSA (60 μl per well). A “zero” standard consisted of TBS in place of an MSH solution. In practice, 168 μl of thiol standard were added to 252 μl of maleimide-activated BSA solution. Samples of unknown thiol content were reacted with maleimide-activated BSA in the same manner, providing a small excess volume for pipetting of quadruplicate samples of 100 μl per well. After 2-hour incubation at room temperature, the thiol-BSA samples were aliquoted (100 μl per well) into Immulon-4 microplate wells and allowed to bind overnight at 4° C. Unbound protein was removed by gentle aspiration with mild vacuum and the wells blocked for 2 hours at room temperature with 1% v/v fish-skin gelatin in TBS. The wells were drained, washed once with TBST (TBS plus 0.05% Tween-20), and drained. Washes involved filling wells to the top with wash buffer followed by gentle aspiration to drain the wells. Primary antibody (affinity-purified anti-MSH, 100 μl per well) was added and the plate incubated for 4 hours at room temperature. The wells were drained, washed twice with TBST, and drained. Secondary antibody (goat anti-rabbit [whole IgG] F(ab′)2 fragments conjugated to bovine intestinal alkaline phosphatase, 100 μl per well) was added and the plate incubated for 1 hour at room temperature. The wells were drained, washed twice with TBST, twice with TBS, and drained. The alkaline phosphatase substrate (3.8 mM p-nitrophenylphosphate in 0.2 M Tris, pH 9.8, 200 μl per well) was added and the plate incubated 30 minutes at room temperature. The reaction was quenched by addition of 50 μl per well stop solution (4 N NaOH). The plate was read at 405 nm on a microplate reader (Model EL311, Bio-Tek Instruments) that was programmed to automatically subtract blank values read from wells that received only the blocking agent, wash solutions, p-nitrophenyl phosphate, and stop solution.
Since reaction of typical cellular constituents with maleimide-BSA is largely limited to thiols, it was considered important to ascertain whether any typical biological thiols would produce false-positive assay results.
In order to test whether the anti-mycothiol antibody recognizes component parts of the mycothiol molecule we also tested the ELISA on N-acetyl-L-cysteine, L-cysteinyl-glucosamine, (2-L-cysteinyl)amido-2-deoxy-α-D-glucopyranose), and N-acetyl-L-cysteinyl-glucosamine (2-N-acetyl-L-cysteinyl)amido-2-deoxy-α-D-glucopyranose).

[1] = target: ATP-dependent ligase activity (Mycolicibacterium smegmatis, UniProt A0QZY0); test: Assay of ATP-dependent ligase activity with GlcN-Ins plus Cys/AcCys in cell extract supernatant; type: biochemical, M. smegmatis; conditions: for MSH content / Cys-GlcN-Ins concentration: 100 μM substrate, 50 μM GlcN-Ins, 1 mM ATP; for Cys-GlcN-Ins concentration: pH 7.5, 60 min
Chain of ATP-dependent ligase activity (A0QZY0 whole entry): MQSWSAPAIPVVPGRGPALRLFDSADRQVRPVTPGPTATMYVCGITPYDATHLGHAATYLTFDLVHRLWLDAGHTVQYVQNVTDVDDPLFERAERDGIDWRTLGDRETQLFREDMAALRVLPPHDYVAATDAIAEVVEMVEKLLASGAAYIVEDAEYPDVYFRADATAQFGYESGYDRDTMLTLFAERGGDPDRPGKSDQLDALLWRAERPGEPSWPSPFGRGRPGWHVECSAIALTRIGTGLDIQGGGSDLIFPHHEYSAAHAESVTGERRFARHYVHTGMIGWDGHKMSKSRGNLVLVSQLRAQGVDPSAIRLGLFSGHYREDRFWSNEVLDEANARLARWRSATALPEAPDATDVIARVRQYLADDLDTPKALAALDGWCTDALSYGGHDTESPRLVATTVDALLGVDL

[2] = type: physicochemical
Procedure: The crude extract was purified by reversed-phase HPLC on a preparative C 18 column, 25 mm×250 mm (Vydac) by isocratic elution with 0.1% trifluoracetic acid (TFA) in ultrapure water at a flow rate of 10 ml/min. Under these conditions MSH eluted as the free thiol at 8 minutes and as its disulfide (MSSM) at 12 minutes. Thiol concentration was determined by titration with DTNB. Purified MSH was stored as a concentrated (0.11 M) stock solution in 0.1% TFA (aqueous), frozen at −70° C.
To produce biotinylated MSH suitable for use as a standard, the following procedure was carried out: 5.0 μL of 3.7 mM pure MSH in 0.1% TFA was added to 12.3 μL 1.5 mM MPB in DMSO/acetonitrile/100 mM phosphate buffer, pH 7.0 (1:4:5). The mixture was allowed to react 1 hour at room temperature. To determine the extent of biotinylation, unreacted MSH was measured by titration with DTNB. The standard was stored in 1.0 μL aliquots frozen at −70° C. For use in ELISA analyses, the standard was diluted to a concentration of 1.0 μM in Tris-buffered saline, pH 7.3, containing 0.04% w/v sodium azide, 0.05% v/v Tween 20 and 0.1% w/v BSA (TBSTB); this solution was stable for several (>6) months when stored refrigerated as indicated by consistency of ELISA measurements.

Compound: CC(=O)N[C@@H](CS)C(=O)O [AcCys, N-acetyl-cysteine]
- effect on growth (M. smegmatis mc^2155; 10 mM AcCys, 2.5 h): significantly inhibits growth
- MSH content elevated (M. smegmatis mc^2155; 10 mM AcCys, after 2.5 h): ~40%
- Cys-GlcN-Ins content elevated over normal (M. smegmatis mc^2155; 10 mM AcCys, immediately after the start of incubation): 20 fold
- change of A600 value (M. smegmatis mc^2155; 10 mM AcCys, over the 2.5 h incubation period): 5%
- fall of Cys-GlcN-Ins content (factor) (M. smegmatis mc^2155; 10 mM AcCys, over the next 2.5 h): 70
- Cys level increased (M. smegmatis mc^2155; medium containing 10 mM AcCys): 50 fold
- H2S level (M. smegmatis mc^2155; medium containing 10 mM AcCys): roughly doubled
- cellular AcCys level elevated over the normal level (M. smegmatis mc^2155; medium containing 10 mM AcCys): 1000 fold
- decrease in GlcN-Ins content (M. smegmatis mc^2155; medium containing 10 mM AcCys): 5- to 10 fold
- ELISA result (recognition by the anti-mycothiol antibody) (anti-mycothiol antibody): negative
- [Cys]/[AcCys] ([1]; 100 μM AcCys, by 60 min): ~3
- MSH content ([1]; 60 min): 15 µM
- Cys-GlcN-Ins concentration [1]: 20 µM

Compound: CC(=O)N[C@@H](CS)C(=O)N[C@@H]1[C@@H](O)[C@H](O)[C@@H](CO)O[C@@H]1O [AcCys-GlcN, 2-(N-acetyl-L-cysteinyl)amido-2-deoxy-α-d-glucopyranoside]
- sensitivity of the assay relative to that for MSH (anti-mycothiol antibody; of that for MSH): about 4%
- ELISA result (recognition by the anti-mycothiol antibody) (anti-mycothiol antibody): positive

Compound: N[C@@H](CS)C(=O)O [Cys, L-cysteine]
- ELISA result (recognition by the anti-mycothiol antibody) (anti-mycothiol antibody): negative
- MSH content ([1]; 0 min): 15 µM
- MSH content ([1]; 60 min): 13 µM
- Cys-GlcN-Ins concentration [1]: 26 µM

Compound: N[C@@H](CS)C(=O)N[C@@H]1[C@@H](O)[C@H](O)[C@@H](CO)O[C@@H]1O [Cys-GlcN, 2-(L-cysteinyl)amido-2-deoxy-α-D-glucopyranoside]
- ELISA result (recognition by the anti-mycothiol antibody) (anti-mycothiol antibody): negative

Compound: O[C@H]1[C@H](O)[C@@H](O)[C@H](O)[C@@H](O)[C@H]1O [Ins, myo-inositol]
- MSH and H2S levels (M. smegmatis mc^2155; 1 mM Ins, 37° C., 0 to 2.5 h): did not change to a significant extent
- GlcN-Ins content relative to normal (M. smegmatis mc^2155; 1 mM Ins, 37° C., at 0.5 h): about half normal
- GlcN-Ins content relative to normal (M. smegmatis mc^2155; 1 mM Ins, 37° C., at 2.5 h): returning to normal
- GlcN-Ins content relative to normal (M. smegmatis mc^2155; 1 mM Ins, 37° C., initially (0 h)): more than 3 fold
- increase of A600 value (M. smegmatis mc^2155; 1 mM Ins, over the 2.5 h incubation): 40%

Compound: CC(=O)N[C@@H](CS)C(=O)N[C@H]1[C@@H](OC2[C@H](O)[C@H](O)C(O)[C@H](O)[C@H]2O)O[C@H](CO)[C@@H](O)[C@@H]1O (stereo partly drawn) [MSH, 1-D-myo-inosityl-2-(N-acetyl-L-cysteinyl)amido-2-deoxy-α-D-glucopyranoside]
- stability on storage [2]: stable as the free thiol for many months

Compound: CC(C)(COP(=O)(O)OP(=O)(O)OC[C@H]1O[C@@H](n2cnc3c(N)ncnc32)[C@H](O)[C@@H]1OP(=O)(O)O)[C@@H](O)C(=O)NCCC(=O)NCCS [coenzyme A, reference compound]
- ELISA result (recognition by the anti-mycothiol antibody) (anti-mycothiol antibody): negative

Compound: N[C@@H](CCC(=O)N[C@@H](CS)C(=O)NCC(=O)O)C(=O)O [glutathione, reference compound]
- ELISA result (recognition by the anti-mycothiol antibody) (anti-mycothiol antibody): negative

Compound: CC(C)(CO)[C@@H](O)C(=O)NCCC(=O)NCCS [pantetheine, reference compound]
- ELISA result (recognition by the anti-mycothiol antibody) (anti-mycothiol antibody): negative

Compound: ^14C-inositol [reference compound]
- counts lost from the medium to the cells (uptake) (M. smegmatis mc^2155; 37 μM, culture at A600=1.0, after 2.5 h): 77%
